# Results from PubChem BioAssay (NCI).
#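 A five-concentration, 48-hour dose response in 96-well plates underlies each endpoint, interpolated linearly between surrounding concentrations. Definition used: TGI = concentration required for complete inhibition of growth.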
# Columns and labels:
# Assay in all cases: growth of human tumour cells (NCI), 48 h
# 786-0 renal = test system: 786-0 renal
# A498 renal = test system: A498 renal
# A549 NSCLC = test system: A549 NSCLC
# ACHN renal = test system: ACHN renal
# BT-549 breast = test system: BT-549 breast
# CAKI-1 renal = test system: CAKI-1 renal
# CCRF-CEM leukemia = test system: CCRF-CEM leukemia
# COLO 205 colon = test system: COLO 205 colon
# DU-145 prostate = test system: DU-145 prostate
# EKVX NSCLC = test system: EKVX NSCLC
# HCT-116 colon = test system: HCT-116 colon
# HCT-15 colon = test system: HCT-15 colon
# HL-60(TB) leukemia = test system: HL-60(TB) leukemia
# HOP-62 NSCLC = test system: HOP-62 NSCLC
# HOP-92 NSCLC = test system: HOP-92 NSCLC
# HS 578T breast = test system: HS 578T breast
# HT29 colon = test system: HT29 colon
# IGROV1 ovarian = test system: IGROV1 ovarian
# K-562 leukemia = test system: K-562 leukemia
# KM12 colon = test system: KM12 colon
# LOX IMVI melanoma = test system: LOX IMVI melanoma
# M14 melanoma = test system: M14 melanoma
# MALME-3M melanoma = test system: MALME-3M melanoma
# MCF7 breast = test system: MCF7 breast
# MDA-MB-231 breast = test system: MDA-MB-231 breast
# MDA-MB-435 = test system: MDA-MB-435
# MDA-N = test system: MDA-N
# MOLT-4 leukemia = test system: MOLT-4 leukemia
# NCI-H226 lung = test system: NCI-H226 lung
# NCI-H23 lung = test system: NCI-H23 lung
# NCI-H460 lung = test system: NCI-H460 lung
# NCI-H522 lung = test system: NCI-H522 lung
# NCI/ADR-RES ovarian = test system: NCI/ADR-RES ovarian
# OVCAR-3 ovarian = test system: OVCAR-3 ovarian
# OVCAR-4 ovarian = test system: OVCAR-4 ovarian
# OVCAR-5 ovarian = test system: OVCAR-5 ovarian
# OVCAR-8 ovarian = test system: OVCAR-8 ovarian
# PC-3 prostate = test system: PC-3 prostate
# RPMI-8226 leukemia = test system: RPMI-8226 leukemia
# RXF 393 renal = test system: RXF 393 renal
# SF-268 CNS = test system: SF-268 CNS
# SF-295 CNS = test system: SF-295 CNS
# SF-539 CNS = test system: SF-539 CNS
# SK-MEL-2 melanoma = test system: SK-MEL-2 melanoma
# SK-MEL-28 melanoma = test system: SK-MEL-28 melanoma
# SK-MEL-5 melanoma = test system: SK-MEL-5 melanoma
# SK-OV-3 ovarian = test system: SK-OV-3 ovarian
# SN12C renal = test system: SN12C renal
# SNB-19 CNS = test system: SNB-19 CNS
# SNB-75 CNS = test system: SNB-75 CNS
# SR leukemia = test system: SR leukemia
# SW-620 colon = test system: SW-620 colon
# T-47D breast = test system: T-47D breast
# TK-10 renal = test system: TK-10 renal
# U251 CNS = test system: U251 CNS
# UACC-257 melanoma = test system: UACC-257 melanoma
# UACC-62 melanoma = test system: UACC-62 melanoma
# UO-31 renal = test system: UO-31 renal
structure (smiles),measurement,setting,value
COc1ccc(CNC(C)C(=O)O)cc1 (configuration not stated),TGI,786-0 renal,> 100 µM
same,TGI,A498 renal,> 100 µM
same,TGI,A549 NSCLC,> 100 µM
same,TGI,ACHN renal,> 100 µM
same,TGI,BT-549 breast,> 100 µM
same,TGI,CAKI-1 renal,> 100 µM
same,TGI,CCRF-CEM leukemia,65.5 µM
same,TGI,COLO 205 colon,> 100 µM
same,TGI,DU-145 prostate,> 100 µM
same,TGI,EKVX NSCLC,> 100 µM
same,TGI,HCT-116 colon,> 100 µM
same,TGI,HCT-15 colon,> 100 µM
same,TGI,HL-60(TB) leukemia,> 100 µM
same,TGI,HOP-62 NSCLC,> 100 µM
same,TGI,HOP-92 NSCLC,> 100 µM
same,TGI,HS 578T breast,> 100 µM
same,TGI,HT29 colon,> 100 µM
same,TGI,IGROV1 ovarian,> 100 µM
same,TGI,K-562 leukemia,> 100 µM
same,TGI,KM12 colon,> 100 µM
same,TGI,LOX IMVI melanoma,> 100 µM
same,TGI,M14 melanoma,> 100 µM
same,TGI,MALME-3M melanoma,> 100 µM
same,TGI,MCF7 breast,> 100 µM
same,TGI,MDA-MB-231 breast,> 100 µM
same,TGI,MDA-MB-435,> 100 µM
same,TGI,MDA-N,> 100 µM
same,TGI,MOLT-4 leukemia,> 100 µM
same,TGI,NCI-H226 lung,> 100 µM
same,TGI,NCI-H23 lung,> 100 µM
same,TGI,NCI-H460 lung,> 100 µM
same,TGI,NCI-H522 lung,> 100 µM
same,TGI,NCI/ADR-RES ovarian,> 100 µM
same,TGI,OVCAR-3 ovarian,> 100 µM
same,TGI,OVCAR-4 ovarian,> 100 µM
same,TGI,OVCAR-5 ovarian,> 100 µM
same,TGI,OVCAR-8 ovarian,> 100 µM
same,TGI,PC-3 prostate,> 100 µM
same,TGI,RPMI-8226 leukemia,> 100 µM
same,TGI,RXF 393 renal,> 100 µM
same,TGI,SF-268 CNS,> 100 µM
same,TGI,SF-295 CNS,> 100 µM
same,TGI,SF-539 CNS,> 100 µM
same,TGI,SK-MEL-2 melanoma,> 100 µM
same,TGI,SK-MEL-28 melanoma,> 100 µM
same,TGI,SK-MEL-5 melanoma,> 100 µM
same,TGI,SK-OV-3 ovarian,> 100 µM
same,TGI,SN12C renal,> 100 µM
same,TGI,SNB-19 CNS,> 100 µM
same,TGI,SNB-75 CNS,> 100 µM
same,TGI,SR leukemia,> 100 µM
same,TGI,SW-620 colon,> 100 µM
same,TGI,T-47D breast,> 100 µM
same,TGI,TK-10 renal,> 100 µM
same,TGI,U251 CNS,> 100 µM
same,TGI,UACC-257 melanoma,> 100 µM
same,TGI,UACC-62 melanoma,> 100 µM
same,TGI,UO-31 renal,> 100 µM
COc1ccc2c(c1)C1OCCNC1CC2 (configuration not stated),TGI,786-0 renal,> 100 µM
same,TGI,A498 renal,> 100 µM
same,TGI,A549 NSCLC,> 100 µM
same,TGI,ACHN renal,> 100 µM
same,TGI,BT-549 breast,> 100 µM
same,TGI,CAKI-1 renal,> 100 µM
same,TGI,CCRF-CEM leukemia,> 100 µM
same,TGI,COLO 205 colon,> 100 µM
same,TGI,DU-145 prostate,> 100 µM
same,TGI,EKVX NSCLC,> 100 µM
same,TGI,HCT-116 colon,> 100 µM
same,TGI,HCT-15 colon,> 100 µM
same,TGI,HL-60(TB) leukemia,> 100 µM
same,TGI,HOP-62 NSCLC,> 100 µM
same,TGI,HS 578T breast,> 100 µM
same,TGI,HT29 colon,> 100 µM
same,TGI,IGROV1 ovarian,> 100 µM
same,TGI,K-562 leukemia,> 100 µM
same,TGI,KM12 colon,> 100 µM
same,TGI,LOX IMVI melanoma,> 100 µM
same,TGI,M14 melanoma,> 100 µM
same,TGI,MALME-3M melanoma,> 100 µM
same,TGI,MCF7 breast,> 100 µM
same,TGI,MDA-MB-231 breast,> 100 µM
same,TGI,MDA-MB-435,> 100 µM
same,TGI,MDA-N,> 100 µM
same,TGI,MOLT-4 leukemia,> 100 µM
same,TGI,NCI-H226 lung,> 100 µM
same,TGI,NCI-H23 lung,> 100 µM
same,TGI,NCI-H522 lung,> 100 µM
same,TGI,NCI/ADR-RES ovarian,> 100 µM
same,TGI,OVCAR-5 ovarian,> 100 µM
same,TGI,OVCAR-8 ovarian,> 100 µM
same,TGI,PC-3 prostate,> 100 µM
same,TGI,RPMI-8226 leukemia,> 100 µM
same,TGI,RXF 393 renal,> 100 µM
same,TGI,SF-268 CNS,> 100 µM
same,TGI,SF-295 CNS,> 100 µM
same,TGI,SF-539 CNS,> 100 µM
same,TGI,SK-MEL-2 melanoma,> 100 µM
same,TGI,SK-MEL-28 melanoma,> 100 µM
same,TGI,SK-MEL-5 melanoma,> 100 µM
same,TGI,SK-OV-3 ovarian,> 100 µM
same,TGI,SN12C renal,> 100 µM
same,TGI,SNB-19 CNS,> 100 µM
same,TGI,SNB-75 CNS,> 100 µM
same,TGI,SR leukemia,> 100 µM
same,TGI,SW-620 colon,> 100 µM
same,TGI,T-47D breast,> 100 µM
same,TGI,TK-10 renal,> 100 µM
same,TGI,U251 CNS,> 100 µM
same,TGI,UACC-257 melanoma,> 100 µM
same,TGI,UACC-62 melanoma,> 100 µM
same,TGI,UO-31 renal,> 100 µM
